# Experimental data as given in patent publication US11445912B2, “Robust myocardial blood oxygen level dependent magnetic resonance imaging with long acting coronary vasodilators” (Cedars-Sinai Medical Center, priority 2015, dated 2022).
# Read-outs that look alike come from different tables or passages of the source.
# Assays:
# [1] = cited from earlier work; for terminal half-life: extended vasodilatory state
# [2] = tested on: Canines; test: 13N-ammonia PET myocardial blood flow at rest and post regadenoson, PET/MR (Example 1); format: in vivo
# Protocol: (§1) Canines (n=7) were studied in a PET/MR system. MR acquisitions were used to generate short-axis 2D T2 maps; and the PET acquisitions following ^[…]-ammonia infusion were used to quantify myocardial blood flow (MBF). Initially, 2D T2 maps and PET signals were acquired at rest. Subsequently, regadenoson (2.5 μg/kg) was administrated. T2 maps were acquired at 2- and 10-mins p.r.a and PET signals were acquired at 10-mins p.r.a. Standard deviation (a) of myocardial T2 values was measured at rest, 2- and 10-mins p.r.a from T2 maps and were used to determine Myocardial BOLD Variability (MBV, defined as σT2(stress)/σT2(rest)) at 2- and 10-min p.r.a. Similarly, using the mean T2 values, Myocardial BOLD Response (MBR, defined as T2(stress)/T2(rest)) was computed at 10-mins p.r.a. PET images were analyzed with qPET software to determine MBF and MPR at rest and 10-mins p.r.a and were regressed against MBR.
# [3] = tested on: Canines; test: Myocardial BOLD CMR, 2D T2 maps post regadenoson (Example 1); format: in vivo
# Protocol: as §1
# [4] = tested on: healthy human volunteers; test: Repeated BOLD CMR, coronary dynamic parameters from mono-exponential model (Example 2); format: in vivo; conditions: global myocardium
# Protocol: (§2) BOLD images were acquired at different time points before and after regadenoson administration to sample the rest and stress images, respectively. After bolus regadenoson injection, multiple stress images were acquired to sample the coronary dynamics curve for 30 minutes. All stress images were registered to the rest images with a non-rigid motion correction algorithm (Avants B B, Tustison N J, Song G, Cook P A, Klein A, Gee J C. A reproducible evaluation of ANTs similarity metric performance in brain image registration. Neuroimage 2011; 54:2033-44) to correct for motion-induced miss match between acquisitions. Motion corrected images were used to extract the CDPs throughout the stress period using a mono-exponential model (Felmlee M A, Morris M E, Mager D E. Mechanism-based pharmacodynamic modeling. Methods in molecular biology 2012; 929:583-600) (T2(t)=T2o+ΔT2max exp(−t/τ)). A flow chart of the experimental setup is depicted in FIG. 4.
# (§3) In healthy volunteers and intact dogs, global CDPs were extracted from the myocardium. Maximum BOLD response was derived with CDPs (MBRCDP=ΔT2max/T2o×100%) and compared with conventional myocardial BOLD response (MBRcon), which was derived as the T2 elevation from rest to 2 minutes after regadenoson administration (MBRconv=[(StressT2^2min/Rest T2)−1)×100%]. In the animals with coronary impairment, CDPs were measured in segmental and pixel-wise manner. Pixel-wised CDPs between remote and affected territories were segmented using SVMs to investigate the capability of separating diseased myocardium from the remote regions. In addition, CDPs were derived from subsets of BOLD images with different starting time points to probe the optimized setup of detecting affected territories. Details of each step are described in the following sections.
# (§4) Experimental Subjects and animal preparation: We studied healthy human volunteers (n=6), intact dogs (n=7) and dogs with chronic infarctions (n=1). During imaging studies in animals, all animals were mechanically ventilated and anesthetized with propofol. In the dog with chronic infarction, the animal underwent an open chest ischemia reperfusion protocol (3 hours of ischemia followed by reperfusion), followed by 8-week recovery prior to imaging.
# (§5) Image acquisition: Human studies were performed on a 3.0 T clinical MM system (MAGNETOM Verio®, Siemens Healthcare, Erlangen, Germany) and the animals were studied on a 3T whole body PET MR system (Biograph mMR, Siemens Healthcare, Erlangen, Germany). In all subjects, BOLD images were acquired with a commercially available 2D T2 mapping sequence {Giri, 2009 #820}. In all studies, after localization and shimming, rest BOLD images were acquired under baseline followed by a bolus regadenoson injection. Post regadenoson administration, BOLD CMR images were acquired between 2 to 30 minutes after regadenoson injection with an interval of 1-5 minutes depending on the physiological and imaging condition. In the animal with chronic infarction, simultaneous ^13N ammonia PET images were acquired at 2 minutes post regadenoson administration to validate the hyperemic response from regadenoson. In addition, LGE images were acquired to identify the infarcted territories after all BOLD acquisitions were completed. Block representations of imaging protocols are illustrated in FIG. 5. Imaging parameters are listed as the following: T2 mapping: TR/TE=2.9 ms/1.1 ms, iPAT=2, partial Fourier=3/4, FA=35°, BW=1184 Hz/pixel, 86 lines per heartbeat (simulated rate 60/s), trigger pulse=4, FOV=288×360 mm^2, matrix size=154×192, and voxel size=2.5×1.7×6.0 mm^3, T2 preparation (as TEs)=0, 24, 55 ms.
# (§6) Image Processing: The series of BOLD images acquired post regadenoson administration were aligned using the advanced normalization tools (ANTS software). Rest images were used as the reference for registration. […]
# [5] = tested on: intact dogs; test: as above; format: in vivo; conditions: global myocardium
# Protocol: as §2, §3, §4, §5, §6
# [6] = tested on: dog with chronic infarction; test: Repeated BOLD CMR, coronary dynamic parameters in remote and affected myocardium (Example 2); format: in vivo
# Protocol: as §2, §3, §4
# Image acquisition: Human studies were performed on a 3.0 T clinical MM system (MAGNETOM Verio®, Siemens Healthcare, Erlangen, Germany) and the animals were studied on a 3T whole body PET MR system (Biograph mMR, Siemens Healthcare, Erlangen, Germany). In all subjects, BOLD images were acquired with a commercially available 2D T2 mapping sequence {Giri, 2009 #820}. In all studies, after localization and shimming, rest BOLD images were acquired under baseline followed by a bolus regadenoson injection. […]
# [7] = tested on: dog with chronic infarction; test: 13N ammonia PET myocardial perfusion reserve in infarcted animal (Example 2); format: in vivo; conditions: PET at 2 minutes post regadenoson
# Protocol: as §5, with “Imaging parameters are listed as the following: T2 mapping: TR/TE=2.9 ms/1.1 ms, iPAT=2, partial Fourier=3/4, FA=35°, BW=1184 Hz/pixel, 86 lines per heartbeat (simulated rate 60/s), trigger pulse=4, FOV=288×360 mm^2, matrix size=154×192, and voxel size=2.5×1.7×6.0 mm^3, T2 preparation (as TEs)=0, 24, 55 ms.” left out
# In addition, simultaneously acquired quantitative PET images were used to derive myocardial perfusion reserve (MPR) with a clinical validated software (QPET, Cedars-Sinai Medical Center, Los Angeles) and to validate the reduced MPR in the infarcted myocardium.
# [8] = tested on: intact dogs; test: Repeated BOLD CMR with coronary relaxation model (Example 3); format: in vivo
# Protocol: (§7) Intact (n=7) and infarcted (n=2) dogs were studied in a hybrid PET/MR system. 2D BOLD (T2 maps), LGE and ^13N—NH3 PET images were acquired at rest and at post-regadenoson administration (p.r.a.). T2 maps post-regadenoson administration (p.r.a.) were repeatedly acquired over 30 mins and were registered to T2 maps at rest. These time-dependent T2 maps were then used to model the coronary relaxation as T2(t)=T2o+ΔT2max exp(−t/τ), where T2o, ΔT2max and τ are fit parameters with T2o=T2 at rest; ΔT2max=maximal T2 change from rest; and τ=time constant of coronary relaxation. Maximum BOLD response from CRM was estimated (MBRCRM=ΔT2max/T2o×100%) and compared to conventional myocardial BOLD response [MBRcon=(T2^2min−Rest T2)/Rest T2×100%, where T2^2min=myocardial T2 at 2 min p.r.a and Rest T2=T2 prior to regadenoson injection] using a regression model. In infarcted dogs, affected zones were identified using Late Gadolinium Enhancement (LGE). BOLD contrast-to-noise ratio (CNR) between remote and affected zones (CNR=(μMBRRemote−μMBRAffected)/σMBRRemote, where μ and σ are the mean and std dev) were estimated for MBRCRM and MBRcon and compared. MBRs were validated with perfusion reserve from PET myocardial perfusion reserve (MPR).
# [9] = tested on: intact dogs; test: 13N-NH3 PET myocardial perfusion reserve (Example 3); format: in vivo; conditions: p.r.a
# Protocol: as §7
# [10] = tested on: infarcted dogs; test: Repeated BOLD CMR with coronary relaxation model, remote vs affected zones (Example 3); format: in vivo
# Protocol: as §7
# [11] = tested on: infarcted dogs; test: 13N-NH3 PET myocardial perfusion reserve, remote vs affected zones (Example 3); format: in vivo
# Protocol: as §7
# [12] = 10-min post regadenoson administration, 2.5 μg/kg
# [13] = affected (infarcted) myocardium
smiles,measurement,setting,value
OCCN(CCO)c1nc(N2CCCCC2)c2nc(N(CCO)CCO)nc(N3CCCCC3)c2n1 [dipyridamole],terminal half-life,[1]; units printed within the range,40 to 600 min
CNC(=O)c1cnn(-c2nc(N)c3ncn([C@@H]4O[C@H](CO)[C@@H](O)[C@H]4O)c3n2)c1 [regadenoson],myocardial blood flow relative to rest,[2]; 10-15 minutes post regadenoson infusion,above 2 fold
same,myocardial blood flow (MBF),[2]; [12],1.8 ± 0.9 mL/min/g
same,Myocardial T2,[3]; [12],40.4 ± 1.7 ms
same,T2 elevation relative to rest,[3]; 10 min post regadenoson administration,9%
same,MBRCDP (ΔT2max/T2o×100%),[4],26.5%
same,MBRcon (T2 elevation from rest to 2 minutes after regadenoson),[4],12.0%
same,ΔT2max (maximum BOLD stimulation amplitude),[4],14.7 ms
same,τ (coronary relaxation time constant),[4],35.6 min
same,MBRCDP (ΔT2max/T2o×100%),[5],25.8%
same,MBRcon (T2 elevation from rest to 2 minutes after regadenoson),[5],10.1%
same,ΔT2max (maximum BOLD stimulation amplitude),[5],8.6 ms
same,τ (coronary relaxation time constant),[5],38.5 min
same,coronary relaxation time constant (τ),[6]; Remote myocardium,29.6 min
same,maximum T2 response (ΔT2max),[6]; Remote myocardium,5.4 ms
same,coronary relaxation time constant (τ),[6]; [13],54.09 min
same,maximum T2 response (ΔT2max),[6]; [13],1.6 ms
same,myocardial perfusion reserve (MPR),[7]; infarcted territories,1.9
same,myocardial perfusion reserve (MPR),[7]; remote myocardium,3.7
same,MBRCRM (ΔT2max/T2o×100%),[8],27±16%
same,MBRcon ((T2 2min−Rest T2)/Rest T2×100%),[8]; 2 min p.r.a,12±6%
same,ΔT2max (maximal T2 change from rest),[8]; CRM fit,14.7 ± 5.8 ms
same,τ (time constant of coronary relaxation),[8]; CRM fit,35.5 ± 26.8 min
same,PET myocardial perfusion reserve (MPR),[9],3.0±0.6
same,MBRCRM,[10]; Affected region,1±10%
same,MBRcon,[10]; Affected region,5±7%
same,MBRCRM,[10]; Remote region,27±6%
same,MBRcon,[10]; Remote region,15±5%
same,MPRaffected (PET),[11]; Affected region,1.9±0.7
same,MPRremote (PET),[11]; Remote region,3.7±0.6
same,terminal half-life,[1],33 to 108 min
same,second phase of pharmacological half-life,[1]; in vivo,approximately 30 minutes
CCNC(=O)[C@H]1O[C@@H](n2cnc3c(N)nc(C#CC[C@H]4CC[C@H](C(=O)OC)CC4)nc32)[C@H](O)[C@@H]1O [apadenoson],terminal half-life,[1],5 min
Nc1nc(N/N=C/C2CCCCC2)nc2c1ncn2[C@@H]1O[C@H](CO)[C@@H](O)[C@H]1O [binodenoson],terminal half-life,[1],10 to 120 min
